Patent EP2379549B1, “7-AZAINDIRUBINS, 7'-AZAINDIRUBINS, 7-7'-DIAZAINDIRUBIN AND THE CORRESPONDING 3'-OXIME ETHER DERIVATES: PRODUCTION THEREOF, THEIR PRODUCTION AND USE AS A MEDICAMENT” (Eisenbrand, Gerhard, priority 2008, dated 2010)

Legend:
C6 glioblastoma cells = details: murine C6 glioblastoma cells; parent 5-methylindirubin; cited from earlier work
human cancer cell lines = assay: Antiproliferative activity against human cancer cell lines; assay type: cell-based

Row | SMILES | effectiveness for inhibition of cells versus parent compound (C6 glioblastoma cells) | antiproliferative activity as compared to the parent molecule, indirubin (human cancer cell lines)
1 | Cc1cc2c(cc1O)NC(=O)C2=C1Nc2ccccc2C1=O | as effective as the parent compound | –
2 | O=C1Nc2ccccc2C1=C1Nc2ncccc2C1=O [E843, 7'-Azaindirubin] | – | markedly augmented
